The values below come from patent US7732458B2 (priority 2004, dated 2010).

SMILES strings stand for the structures. ≈ marks a conversion by molar mass, not a printed value. Like-named read-outs stand apart in the source and are kept apart here.

For data set [1], the system named is liver fibrosis induced by carbon tetrachloride. Kind of data set: Model of liver fibrosis induced by carbon tetrachloride in rats. In kind it is in vivo, Wistar male rats. The following applies: chronic carbon tetrachloride 12 weeks, treated one time a day for 8 weeks, X ± SD, n = 20. The method, then:
4. The Model of Liver Fibrosis Induced by Carbon Tetrachloride in Rats
Wistar male rats, weighing 100-150 g are used in the study. Animals are housed in an animal room with a 12 h: 12 h photoperiod and at 22° C. Animals are maintained with free access to standard rodent pellet food and water ad libitum
All Wistar male rats are treated with 0.3 ml/(100 g body weight) of 40 percent carbon tetrachloride (dissolved in peanut oil) by hypodermic injection twice a week for 12 weeks to induce […] hepatic fibrosis model, all in phase IV. Then all rats in hepatic fibrosis are randomly divided into the following groups: normal saline (NS) group, sample group and positive contrast group. The NS group rats are treated with 0.2 ml normal saline by intramuscular injection for 8 weeks, and simultaneously, all the other groups are treated with samples one time a day for 8 weeks. […] After that, all rats are killed, and the right lobes of the livers are fixed in neutral formaldehyde solution for histological examination.

Another data set has as its system HBsAg. In kind it is cell-based, hepatitis B virus.
Another data set relates to HIV-1 III B. Kind of data set: Inhibition of HIV-induced MT4 cell pathological effects (CPE). In kind it is cell-based. The following applies: for IC50: 50 percent effective concentration, CPE in MT4 cells, 72 hours. How it is done: HIV-1 III B comes from the USA; MT4 cell line comes from Japan.
To determine viral toxicity, HIV are diluted 10 fold in 8 serial [Chinese version is unclear, and this is an educated guess] and MT4 cell pathological effects are then observed in the culture solution of RPMI-1640. Calculated TCID50 is 10-6. The normal cell control group and virus control group are also performed. The samples with five concentrations per group that are diluted by 2 times and 100 μl AZT are added in cell or virus cultures. All concentrations of samples are performed in three repeated wells. The experiments are maintained at 37° C., 5 percent CO2 for 72 hours. Then the cell pathological effects (CPE) are observed under an inverted microscope. IC50 and selective index SI (TC50/IC50) are calculated in Table 7.

The test system of the next data set is central nervous system. The following applies: in vivo; cited from earlier work.
The test system of data set [2] is hepatic toxicity induced by D-galactosamine. Kind of data set: Model of hepatic toxicity induced by D-galactosamine in rats. In kind it is in vivo. Particulars: D-galactosamine 800 mg/kg i.p. (Table 4), X ± SD, n = 20. The method, then: 3. The Model of Hepatic Toxicity Induced by D-Galactosamine in Rats […] Animals are maintained with free access to standard rodent pellet food and water ad libitum. All rats are randomly divided into 4 groups. All groups except the control group are treated simultaneously with 800 mg/kg of 50 percent D-galactosamine by intraperitoneal injection to induce acute hepatic toxicity model. The blood samples are obtained 12 hours after the final dose for determining SGPT and TBIL. The animals are killed to measure their liver weight and to perform a pathological examination (Table 4).

A further data set concerns bacteria. The following applies: cited from earlier work.
For data set [3] the following is noted: cited from earlier work.
For data set [4], the system named is arrhythmia induced by aconitine. The data set can be described thus: Arrhythmia induced by aconitine in rats. The following applies: for preventive effects on arrhythmia induced by aconitine (in words): intravenously injected, aconitine dosage increased, VT/VF postponed. In kind it is in vivo, Wistar rats. How it is done: The antagonistic effects of the dehydrocavidine species compounds on arrhythmia induced by aconitine
The samples are dissolved in hot normal saline up to the needed concentration. Normal saline serves as the control solution. Propafenone serves as a positive control sample.
Wistar rats of both sexes are randomly grouped and anesthetized by urethane (1.2 g/kg), II lead electrocardiogram is recorded. The groups are administered the following drugs by vena femoralis injection: (1) the compound (5 mg/kg, if possible 2.5 mg/kg), (2) propafenone (7 mg/kg), (3) control solution (2 mg/kg). After 5 minutes, aconitine solution (5 μg/ml) was delivered intravenously at a constant speed of 0.08 ml/min. The volume of aconitine solution is recorded when VP, VT and VF occur, and the electrocardiogram is also recorded. EV50 (VF) values are calculated by regression analysis on the basis of the dosage of aconitine consumed by VF in each experiment.

The subject of the next data set is cell Hep G2 2.2.15. The data set can be described thus: Toxicity to cell Hep G2 2.2.15 (MTT method). In kind it is cell-based, human.
The subject of data set [5] is acute liver injury induced by thioacetamide. The data set can be described thus: Model of acute liver injury induced by thioacetamide in mice. The following applies: thioacetamide 30 mg/kg, X ± SD, n = 20; for ALT / AST: blood 24 hours after final dose. In kind it is in vivo, Kunming mice. How it is done:
The model of acute liver injury induced by thioacetamide in mice Experimental animals: Kunming mice, male or female, weighing 19-22 g, are used in the study. Animals are housed in an animal room with a natural photoperiod and room temperature (23±2° C.), and maintained with free access to standard rodent pellet food and water ad libitum. […] All mice are randomly divided to 7 groups. […] Then all groups are successively dosed three times at an interval of 3 hours, 6 hours and 9 hours after being infected, and the blood samples were obtained at 24 hours (i.e. the next day) after the final dose. The follow markers and liver weight were measured and also the pathological examination were performed (Table 2).

The conditions of data set [6]: normal mice; cited from earlier work.
In a further data set the test system is influenza A1 virus. Kind of data set: Anti-influenza virus experiment in MDCK cells. In kind it is cell-based. The following applies: for IC50: 72 h, MDCK cells, 3 days.
The test system of data set [7] is smooth muscles of the intestines. Particulars: cited from earlier work.
A further data set has as its system gram-positive bacterium. The following applies: in vitro; cited from earlier work.
The test system of the next data set is MT4 cells. The data set can be described thus: Toxicity of compounds on MT4 cells (MTT method). Particulars: 6 days. In kind it is cell-based. How it is done:
MT4 cells are cultured in 96-well plates (2×10^5 cells/ml, 0.1 ml/well) and the verifying compounds are added and compared against the positive control sample AZT, and the normal cell control group at the same time. Comparisons against DMSO control group and MT4 cell control group are also performed. The culture is maintained at 37° C., 5 percent CO2 for 6 days. The cell activities are tested by the MTT method to determine TC50.
A general note: Formazan colour is commonly taken as a measure of viable cells.

A further data set deals with HBeAg. In kind it is cell-based, hepatitis B virus.
Data set [8] relates to acute hepatic toxicity induced by carbon tetrachloride. The data set can be described thus: Model of acute hepatic toxicity induced by carbon tetrachloride in rats. In kind it is in vivo. The following applies: blood 12 hours after final dose, X ± SD, n = 20. How it is done: 2. The Model of Acute Hepatic Toxicity Induced by Carbon Tetrachloride in Rats
Matured SD rats, male or female, weighing 250-350 g are used in the study. Animals are maintained with free access to standard rodent pellet food and water ad libitum.
All rats are randomly divided into 6 groups. All the other groups are treated with 0.5 ml/100 g of 50 percent carbon tetrachloride by hypodermic injection to induce acute hepatic toxicity model, except the control group, and are dosed one time simultaneously. Then all groups will be successively dosed at 4 hours and 8 hours, and the blood samples obtained at 12 hours after the final dose for determining ALT and AST. The animals are killed to measure their liver weight and to perform a pathological examination (Table 3).

As to `COc1cc2c(cc1OC)-c1c(C)c3ccc4c(c3c[n+]1CC2)OCO4` [dehydrocavidine], the ALT is given as 1113.4 ± 247.6 in [1], 846.28 ± 172.54 in data set [2], 873.50 ± 251.82 in data set [5] and 774.30 ± 217.11 in data set [8]. The AST in [1] came out at 987.3 ± 237.9; in [2], 241.20 ± 65.53; in [5] it was 237.10 ± 73.27; in data set [8] it was 1116.54 ± 348.27. The “Hydroxy-prodine in Liver” value in data set [1] stood at 0.162 ± 0.013. Besides, the “Inhibition frequency to HBsAg (%)” value in the data set on HBsAg (concentration 0.1 μmol/ml) is 28.4%; in the data set on HBsAg (concentration 0.2 μmol/ml), 31.4%; with HBsAg (concentration 0.4 μmol/ml) it was 34.6%. Further, in the data set with HIV-1 III B, the “inhibitory effects on HIV viruses (in words)” value was “certain inhibitory effects on HIV viruses”. Also, the IC50 in the data set with HIV-1 III B (Human immunodeficiency virus 1, read-out: IC50) stood at 12.5 µg/mL; with influenza A1 virus, 7.4 µM. In addition, the “effects on the central nervous system” value with central nervous system is on record as “sedative effects on the central nervous system”. Further, the “Liver index (g liver wt./100 g body wt.)” value in data set [2] was 5.10 ± 0.36 g liver wt./100 g body wt; in [5] it was 5.36 ± 0.54 g liver wt./100 g body wt. In the data set on bacteria, the “antibacterial effect in vitro” value is on record as “antibacterial effect in vitro”. Further, the “production of glycogen in vivo” value in data set [3] is recorded as “effect on increasing the production of glycogen in vivo”. In addition, the ED50 in [4] (Rattus norvegicus, read-out: ED50 (10^−6 mol/Kg)) was determined as 7.33 µmol/kg. The “preventive effects on arrhythmia induced by aconitine (in words)” value in data set [4] is listed as “certain preventive effects on arrhythmia induced by aconitine”. The Toxicity to cell result with cell Hep G2 2.2.15 (concentration 0.1 μmol/ml), in the data set with cell Hep G2 2.2.15 (concentration 0.2 μmol/ml) and in the data set on cell Hep G2 2.2.15 (concentration 0.4 μmol/ml) was “− (“no obvious toxicity” means cell livability ≧75% using MTT method)” each time. In data set [6], the “effects on blood sugar levels” value was “no effects on the blood sugar levels in normal mice”. Further, the “inhibitory effects on influenza viruses (in words)” value with influenza A1 virus was “markedly inhibitory effects on influenza viruses”. For the same compound, the “effects on the smooth muscles of the intestines” value in data set [7] is listed as “antispasm effects on the smooth muscles of the intestines”. Moreover, the “inhibitory effect on gram-positive bacterium” value in the data set on gram-positive bacterium is “certain inhibitory effect on gram-positive bacterium”. Moreover, the “TC50” value in the data set with MT4 cells is above 1000 µg/mL. Also, the “Inhibition frequency to HBeAg (%)” value with HBeAg (concentration 0.1 μmol/ml) is 20.5%; in the data set with HBeAg (concentration 0.2 μmol/ml) it was 21.6%; in the data set with HBeAg (concentration 0.4 μmol/ml) it was 57.2%.
In the case of `COc1cc2cc[n+]3cc4c5c(ccc4c(C)c3c2cc1O)OCO5` [dehydroapocavidine], the ALT in data set [1] worked out at 973.2 ± 273.5; in data set [2], 1027.10 ± 277.38; in data set [5], 823.26 ± 178.42; in [8], 955.36 ± 327.18. Moreover, the AST in [1] is recorded as 1057.1 ± 338.7; in data set [2] it was 345.20 ± 68.29; in data set [5], 241.13 ± 62.81; in data set [8], 903.52 ± 256.94. Besides, the “Hydroxy-prodine in Liver” value in [1] was 0.175 ± 0.018. Also, the “Inhibition frequency to HBsAg (%)” value in the data set on HBsAg (concentration 0.1 μmol/ml) is given as 15.7%; with HBsAg (concentration 0.2 μmol/ml), 21.3%; in the data set with HBsAg (concentration 0.4 μmol/ml), 28.6%. In the data set on HIV-1 III B, the “inhibitory effects on HIV viruses (in words)” value is reported as “certain inhibitory effects on HIV viruses”. In addition, the “IC50” value with HIV-1 III B stood at 6.25 µg/mL. In addition, the “Liver index (g liver wt./100 g body wt.)” value is given as 4.47 ± 0.47 g liver wt./100 g body wt in data set [2] and 5.14 ± 0.48 g liver wt./100 g body wt in [5]. In data set [4], the “preventive effects on arrhythmia induced by aconitine (in words)” value was “certain preventive effects on arrhythmia induced by aconitine”. The “ED50 (10^−6 mol/Kg)” value in data set [4] (rats, vena femoralis injection, regression on aconitine dosage consumed by VF) is given as 4.26 10^−6 mol/Kg. For the same compound, the Toxicity to cell result in the data set with cell Hep G2 2.2.15 (concentration 0.1 μmol/ml), with cell Hep G2 2.2.15 (concentration 0.2 μmol/ml) and with cell Hep G2 2.2.15 (concentration 0.4 μmol/ml) was “− (“no obvious toxicity” means cell livability ≧75% using MTT method)” each time. Also, in the data set with influenza A1 virus, the “inhibitory effects on influenza viruses (in words)” value is reported as “markedly inhibitory effects on influenza viruses”. Further, the “TC50” value in the data set with MT4 cells was 250 µg/mL. For the same compound, the “Inhibition frequency to HBeAg (%)” value in the data set on HBeAg (concentration 0.1 μmol/ml) came out at 26.5%; with HBeAg (concentration 0.2 μmol/ml), 33.5%; in the data set on HBeAg (concentration 0.4 μmol/ml) it was 62.1%.
On to `Cc1cn([C@H]2C[C@H](N=[N+]=[N-])[C@@H](CO)O2)c(=O)[nH]c1=O` [AZT, zidouvding, reference compound], for which the “IC50” value with HIV-1 III B stood at 0.1 µg/mL (≈ 0.374 µM). The “TC50” value in the data set on MT4 cells came to 500 µg/mL (≈ 1870 µM).
For `Nc1ccn([C@@H]2CS[C@H](CO)O2)c(=O)n1` [3TC, reference compound], the “Inhibition frequency to HBsAg (%)” value in the data set with HBsAg (concentration 1.0 μmol/ml) is recorded as 4.8%. For the same compound, the “Inhibition frequency to HBeAg (%)” value in the data set on HBeAg (concentration 1.0 μmol/ml) is 24.5%.
Consider `NC(=O)c1ncn([C@@H]2O[C@H](CO)[C@@H](O)[C@H]2O)n1` [Ribavirin, reference compound], for which the IC50 in the data set on influenza A1 virus worked out at 3.2 µM.

By IC50 is commonly meant the midpoint of a concentration-inhibition curve.
